Where “and” joins values, the source holds several entries; their conditions need not be identical. Equal values may be shown once.
Columns and labels:
[1] = uniformity of LB particle size distribution and concentration after dispersion/mixing and homogenization; type: physicochemical; conditions: post LB dispersion in Part II & mixing with Part I
[2] = particle size distribution of micronized LB drug substance (dry milled, wet milled, spray dried); type: physicochemical
Procedure: FIG. 3 and FIG. 4 show typical particle size distributions and photomicrographs of LB drug substance prepared by dry milling. The dry milled LB powder was dispersed in 1% polysorbate 20 and three replicate measurements of the particle size distribution were made.
FIG. 5 and FIG. 6 show typical particle size distributions and photomicrographs of LB drug substance prepared by wet milling. After wet milling for 15 minutes, the LB suspension was sampled and three replicate measurements of the particle size distribution were made.
FIG. 7 and FIG. 8 show typical particle size distributions and photomicrographs of LB drug substance prepared by spray drying processes. The spray dried LB powder was dispersed in 0.5% polysorbate 80 and three replicate measurements of the particle size distribution were made.

ovulation [3] = experiment: monkey study, time to return to ovulation / duration of action; type: in vivo, non-human primates
ovulation [4] = conditions: women, single dose of 50 mg, micronized aqueous suspension, injected; cited from earlier work
[5] = dry milled LB powder dispersed in 1% polysorbate 20, replicate runs
[6] = spray dried LB powder dispersed in 0.5% polysorbate 80, replicate runs
[7] = wet milled 15 minutes, LB suspension, replicate runs

C#C[C@]1(OC(=O)CCC)CC[C@H]2[C@@H]3CCC4=CC(=O)CC[C@@H]4[C@H]3CC[C@@]21CC [LB, Levonorgestrel Butanoate]
Assay Results - Concentration of LB, Average ([1]; 15 minutes): 20.03 mg/mL
Particle Size D50 ([1]; 15 minutes): 6.3 μm
Particle Size VMD ([1]; 15 minutes): 8.1 μm
particle size D10 ([1]; 15 minutes): 1.4 μm
particle size D90 ([1]; 15 minutes): 17.1 μm
Assay Results - Concentration of LB, Average ([1]; 30 minutes): 20.00 mg/mL
Particle Size D50 ([1]; 30 minutes): 6.3 μm
Particle Size VMD ([1]; 30 minutes): 8.1 μm
particle size D10 ([1]; 30 minutes): 1.4 μm
particle size D90 ([1]; 30 minutes): 17.2 μm
particle size D10 [2, 5]: 5.3 μm and 5.1 μm and 4.3 μm
particle size D90 [2, 5]: 89.5 μm and 62.2 μm and 65.0 μm
particle size Mean [2, 5]: 38.6 μm and 30.7 μm and 29.9 μm
particle size Median [2, 5]: 23.1 μm and 22.7 μm and 18.6 μm
particle size D10 [2, 6]: 8.3 μm and 8.2 μm (2×)
particle size D90 [2, 6]: 24.7 μm and 24.8 μm (2×)
particle size Median [2, 6]: 15.8 μm
particle size D10 [2, 7]: 5.4 μm (2×) and 4.3 μm
particle size D90 [2, 7]: 47.3 μm and 50.9 μm and 54.9 μm
particle size Mean [2, 7]: 23.2 μm and 25.2 μm and 26.9 μm
particle size Median [2, 7]: 18.0 μm and 18.4 μm and 21.0 μm
time to return to ovulation (ovulation [3]): increases with increasing particle size of LB in the formulation and in many cases exceeding six months
suppression of ovulation, duration (ovulation [4]): 5-6 months

— US20190328749A1, “FORMULATION OF LONG-ACTING LEVONORGESTREL BUTANOATE INJECTABLE DEPOT SUSPENSION” (Eastern Virginia Medical School, priority 2016, published 2019)
